Test results published in patent US11352637B2, “Methods and compositions for herbicide tolerance in plants” (MONSANTO TECHNOLOGY LLC, priority 2017, dated 2022).
Where two headings read alike, the source gives them in different places.

Experiments:
R and S Kochia biotypes = assay: Greenhouse spray test for cross-resistance of Kochia R-biotype; type: in vivo, Kochia scoparia; details: all treatments, track sprayer, 10 to 15 cm tall plants
Excerpt: To elucidate whether the Kochia R-biotype is cross resistant to 2,4-D or fluroxypyr, greenhouse grown 10 to 15 cm tall Kochia plants were sprayed with either Dicamba at 0,140, 280, 560, 2240, 4480, 6720, 8960, or 17920 g a.e.ha^−1; 2,4-D at 0, 70, 140, 280, 560, 1120, 2240, 4480, 6720, 8960 g a.e.ha^−1 or fluroxypyr at 0, 17.5, 35, 70, 140, 280, 420, 560, 1120, 2240 g a.e.ha^−1 with a track sprayer. […]

[1] = system: seedlings of the R and S Kochia biotypes; assay: Root elongation response of Kochia seedlings; type: in vivo, Kochia scoparia; details: R biotype seedlings; FIG. 5
Procedure: The root elongation response of seedlings from the R and S Kochia biotypes was tested to determine if the R biotype response was consistent with the Y2H findings. For root elongation studies, plant nutrient media was used, with 0.5% sucrose. Seeds were surface sterilized in 30% bleach with 0.1% Triton-X100 for 10 to 30 minutes, then rinsed twice in sterile water and resuspended in 0.1% agar for plating. Root lengths were measured to the nearest millimeter, and the average root length of 12 individuals was calculated unless otherwise noted.

[2] = system: KsIAA16R in combination with KsTIR1; assay: Yeast two-hybrid (Y2H) assay: KsIAA16R binding with KsTIR1 in presence of auxin; design: species or system Kochia scoparia; details: compared with KsIAA16S; concentration not given
Procedure: (§1) Yeast two-hybrid (Y2H) studies were conducted using the Matchmaker® Gold Yeast Two-Hybrid System: vectors, transformation protocols and yeast strains (Clonetech Laboratories, Inc.). The coding sequences for the KsIAA16R (SEQ ID NO: 220), KsIAA16S (SEQ ID NO: 218), KsTIR1 (SEQ ID NO: 285), KsAFB6 (SEQ ID NO: 287), KsAFB2 (SEQ ID NO: 289), and KsAFB5 (SEQ ID NO: 291) were PCR amplified using primers specified in Table 2.
(§2) PCR products were gel purified and recombined into NdeI/NotI digested pGADT7 or pGBKT7 vectors using the In-Fusion® cloning system (Clonetech Laboratories, Inc.). The pGBKT7 vector contained the GAL4 DNA binding domain, rendering the fusions as the “bait,” whereas the “prey” were the fusions containing the pGADT7 vector, which contained the GAL4 activation domain. All vectors were first sequence verified and then the listed vector combinations were co-transformed into the yeast strain, Y2HGold. […] Transformants were plated on SC-Trp-Leu plates to select for those containing both plasmids. Four healthy colonies were selected at random and resuspended into 300 μL of 0.1% agar in water. Five μL of this dilution was replica spotted onto each plate. Plates were incubated at 30° C. for 3 days prior to evaluation of colony growth. […]

[3] = system: KsIAA16R in combination with KsAFB6; assay: Yeast two-hybrid (Y2H) assay: KsIAA16R binding with KsAFB6 in presence of auxin; design: species or system Kochia scoparia
Procedure: as §1
(§3) PCR products were gel purified and recombined into NdeI/NotI digested pGADT7 or pGBKT7 vectors using the In-Fusion® cloning system (Clonetech Laboratories, Inc.). The pGBKT7 vector contained the GAL4 DNA binding domain, rendering the fusions as the “bait,” whereas the “prey” were the fusions containing the pGADT7 vector, which contained the GAL4 activation domain. All vectors were first sequence verified and then the listed vector combinations were co-transformed into the yeast strain, Y2HGold. […] Transformants were plated on SC-Trp-Leu plates to select for those containing both plasmids. Four healthy colonies were selected at random and resuspended into 300 μL of 0.1% agar in water. Five μL of this dilution was replica spotted onto each plate. Plates were incubated at 30° C. for 3 days prior to evaluation of colony growth.
(§4) This method enabled the study of the binding/interaction of the Kochia R and S alleles of KsIAA16 with each of the Kochia TIR/AFB homologs (KsTIR1 (SEQ ID NO: 285), and KsAFB6 (SEQ ID NO: 287)) in the absence or presence of 100 μM or 500 μM exogenous concentrations of IAA, NAA, dicamba, and 2,4-D, picloram, triclopyr, quinclorac, fluroxypyr or phenylacetic acid (PAA).

[4] = system: KsIAA16 (R and S alleles) with KsTIR1 and/or KsAFB6; assay: Y2H assay, summary statements over the protein combinations tested; type: binding, Kochia scoparia; details: for Facilitation of interaction of KsIAA16R with KsTIR1 and/or KsAFB6: at the concentrations tested
Procedure: as §1, §3, §4

[5] = system: dicamba resistant Kochia biotype
[6] = system: Kochia F2 progeny (S/S, R/S, R/R); details: spray 1120 g/ha
Procedure: To determine whether the KsIAA16R allele co-segregates with the dicamba resistance phenotype, spray tests were performed on Kochia populations comprising S and R plants. Crosses between S and R individuals were performed, utilizing the S biotype as the female and the R biotype as the male in order to identify individuals resulting from cross pollination. […] Several verified heterozygous F1 plants were selected for F2 seed production. In addition, a subset of S/S and R/S individuals from the F1 generation was subjected to dicamba sprays to ensure that the marker could effectively identify the R allele.
To determine whether the KsIAA16R allele co-segregates with the dicamba resistance phenotype, 720 F2 progeny from verified heterozygous F1 parental plants were sampled and genotyped, and tolerance to a dicamba spray concentration double the typical dicamba field use rate (1120 g/ha) was determined. Plant identity was maintained throughout the experiment, and genotype and percent visible dicamba injury was determined for each of the F2 progeny.

[7] = system: KsIAA16S in combination with KsTIR1; assay: Yeast two-hybrid (Y2H) assay: KsIAA16S binding with KsTIR1 in presence of auxin; design: species or system Kochia scoparia; details: allele KsIAA16S, yeast colony growth
Procedure: as §1, §2

[8] = system: transgenic Arabidopsis carrying AtIAA16P:KsIAA16 constructs; assay: Root elongation inhibition assay of T2 transgenic Arabidopsis on plant nutrient plus IAA or dicamba; type: in vivo, Arabidopsis thaliana; details: for Root Length (in mm) of T2 transgenics on plant nutrient plus auxin / Root Length (in mm) on plant nutrient plus auxin: +5 μM auxin; for Root Length (in mm) on plant nutrient plus auxin: non-transgenic WT
Excerpt: To determine if the presence of the KsIAA16R allele alone was necessary and sufficient to confer dicamba resistance, several transgene expression constructs were generated for study of KsIAA16 in Arabidopsis. Agrobacterium tumefaciens was used to introduce the binary vectors in the plants using the floral dip method (Clough and Bent, 1998). Vectors contained either the ethanol inducible alcA promoter elements (Salter et al., 1998), the constitutive CaMV35S promoter, or the native Arabidopsis IAA16 promoter (AtIAA16P) driving either KsIAA16R (SEQ ID NO: 220) or KsIAA16S (SEQ ID NO: 218). GUS reporter constructs contained a 2.5 kb genomic DNA fragment from directly upstream of KsIAA16, which is expected to contain most of the promoter elements as well as the 5′UTR, driving uidA. All constructs contained either a Spectinomycin resistance gene (SPEC) or a glufosinate resistance gene (BAR) in the T-DNA region to serve as the selectable marker. For all constructs, T1 seed was harvested, surface sterilized, and plated on the appropriate selective media to identify independent T1 transformants. Single seed decent and segregation on selective media was used to estimate transgene insertion number and identify homozygous lines. For induction of the P-Alc promoter, ethanol was added to a final concentration of 0.01% just before plates were poured, and plates were used immediately. All plates were grown in a Percival growth chamber (Percival Scientific, Inc.) at 22° C. with 16 hour day/8 hour night light cycle and a light intensity of […]. Relative humidity was maintained at 50%. GUS assays were performed according to standard protocols. Briefly, a 20 mg/mL X-Gluc (GoldBio, St. Louis, Mo.) stock in dimethylformamide was diluted into 50 mM phosphate buffer, pH 7.0, to a final concentration of 1 mg/mL. This solution was added to plant tissues, and samples were placed under vacuum for 5 minutes to ensure penetration of the solution into the tissues. Samples were covered in foil to prevent light entry and place at 37° C. for 24 hours to allow color development. Staining solution was removed and chlorophyll was cleared by incubating samples in 50% ethanol for several hours.

Compound	Visible injury at 14 days after treatment (DAT) (R and S Kochia biotypes)	Root elongation inhibition of the R Kochia biotype [1]	Ability of KsIAA16R to interact with KsTIR1 in the presence of the auxin [2]	Facilitation of interaction of KsIAA16R with KsTIR1 and/or KsAFB6 [4]	Root Length (in mm) of T2 transgenics on plant nutrient plus auxin ([8]; line AtIAA16P:KsIAA16R_T2-1) [mm]	Root Length (in mm) of T2 transgenics on plant nutrient plus auxin ([8]; line AtIAA16P:KsIAA16R_T2-2) [mm]	Root Length (in mm) of T2 transgenics on plant nutrient plus auxin ([8]; line AtIAA16P:KsIAA16R_T2-3) [mm]	Root Length (in mm) of T2 transgenics on plant nutrient plus auxin ([8]; line AtIAA16P:KsIAA16R_T2-4) [mm]	Root Length (in mm) of T2 transgenics on plant nutrient plus auxin ([8]; line AtIAA16P:KsIAA16S_T2-1) [mm]	Root Length (in mm) of T2 transgenics on plant nutrient plus auxin ([8]; line AtIAA16P:KsIAA16S_T2-2) [mm]	Root Length (in mm) of T2 transgenics on plant nutrient plus auxin ([8]; line AtIAA16P:KsIAA16S_T2-3) [mm]	Root Length (in mm) of T2 transgenics on plant nutrient plus auxin ([8]; line AtIAA16P:KsIAA16S_T2-4) [mm]	Root Length (in mm) on plant nutrient plus auxin [8] [mm]	also measured
O=C(O)COc1ccc(Cl)cc1Cl [2,4-D, 2,4-dichlorophenoxyacetic acid]	observed	resistant	decreased ability to interact	cannot	–	–	–	–	–	–	–	–	–	Interaction between KsIAA16R and KsAFB6 in the presence of the auxin ([3]; at the concentrations tested): not observed
COc1c(Cl)ccc(Cl)c1C(=O)O [Dicamba, 3,6-dichloro-2-methoxybenzoic acid]	observed	resistant	decreased ability to interact	cannot	12.42 ± 1.27	15.5 ± 1.45	15.58 ± 1.57	17.5 ± 2.12	13.50 ± 1.01	11.42 ± 1.28	14.17 ± 0.9	10.67 ± 0.72	9.08 ± 0.66	fold increase in dicamba resistance [5]: ~30 fold; mean injury rating ([6]; R/R individuals): 24.6%; mean injury rating ([6]; R/S individuals): 35.9%; mean injury rating ([6]; S/S individuals): 82.3%; average injury per genotype (percent visible dicamba injury) ([6]; genotype R/R): about 20%; average injury per genotype (percent visible dicamba injury) ([6]; genotype R/S): about 40%; average injury per genotype (percent visible dicamba injury) ([6]; genotype S/S): about 80%; Ability to bind in combination with KsTIR1 ([7]; auxin [100 mM] (text: 100 μM)): exhibited interaction; Ability to bind in combination with KsTIR1 ([7]; auxin [500 mM] (text: 500 μM)): exhibited interaction; Resistance in root elongation inhibition assay ([8]; four independent transformant lines carrying AtIAA16P:KsIAA16R): showed resistance; Resistance in root elongation inhibition assay ([8]; only one of the four lines carrying AtIAA16P:KsIAA16S): very slight resistance
Nc1c(Cl)c(F)nc(OCC(=O)O)c1Cl [Fluroxypyr, 4-amino-3,5-dichloro-6-fluoro-2-pyridyloxyacetic acid]	observed	–	–	cannot	–	–	–	–	–	–	–	–	–	Y2H interaction in the presence of the auxin ([4]; any of the protein combinations tested): No interaction
O=C(O)Cc1c[nH]c2ccccc12 [IAA, indole-3-acetic acid]	–	remained sensitive	–	can facilitate some interaction	12.17 ± 1.01	18.17 ± 3.09	22.75 ± 2.09	27.25 ± 1.88	7.0 ± 0.77	9.5 ± 0.84	5.67 ± 0.54	5 ± 0.34	5.83 ± 0.24	Resistance to root inhibition ([8]; several lines from both constructs): slight resistance; Ability of KsIAA16R to interact with KsAFB6 in the presence of the auxin ([3]; only the higher concentration could facilitate binding): reduced ability to interact
